Assay: xn = mol fraction of the nth substance listed
Settings: Liquid

CCOS(=O)(=O)[O-].CCn1cc[n+](C)c1 [1-ethyl-3-methylimidazolium ethyl sulfate] + CO
Settings | mass density [kg/m3]
298.15 K, 20000 kPa, x1 = 0.485 | 1171.24
298.15 K, 20000 kPa, x1 = 0.589 | 1193.61
298.15 K, 20000 kPa, x1 = 0.7289 | 1216.37
298.15 K, 20000 kPa, x1 = 0.8521 | 1230.93
298.15 K, 20000 kPa, x1 = 0.9397 | 1240.12
298.15 K, 25000 kPa, x1 = 0.04781 | 900.3
298.15 K, 25000 kPa, x1 = 0.1026 | 972.43
298.15 K, 25000 kPa, x1 = 0.1977 | 1054.44
298.15 K, 25000 kPa, x1 = 0.2432 | 1082.59
298.15 K, 25000 kPa, x1 = 0.3026 | 1112.96
298.15 K, 25000 kPa, x1 = 0.3887 | 1145.98
298.15 K, 25000 kPa, x1 = 0.485 | 1173.44
298.15 K, 25000 kPa, x1 = 0.589 | 1195.76
298.15 K, 25000 kPa, x1 = 0.7289 | 1218.42
298.15 K, 25000 kPa, x1 = 0.8521 | 1232.93
298.15 K, 25000 kPa, x1 = 0.9397 | 1242.11
298.15 K, 30000 kPa, x1 = 0.04781 | 903.63
298.15 K, 30000 kPa, x1 = 0.1026 | 975.41
298.15 K, 30000 kPa, x1 = 0.1977 | 1057.05
298.15 K, 30000 kPa, x1 = 0.2432 | 1085.11
298.15 K, 30000 kPa, x1 = 0.3026 | 1115.37
298.15 K, 30000 kPa, x1 = 0.3887 | 1148.26
298.15 K, 30000 kPa, x1 = 0.485 | 1175.62
298.15 K, 30000 kPa, x1 = 0.589 | 1197.87
298.15 K, 30000 kPa, x1 = 0.7289 | 1220.46
298.15 K, 30000 kPa, x1 = 0.8521 | 1234.93
298.15 K, 30000 kPa, x1 = 0.9397 | 1244.08
298.15 K, 35000 kPa, x1 = 0.04781 | 906.81
298.15 K, 35000 kPa, x1 = 0.1026 | 978.3
298.15 K, 35000 kPa, x1 = 0.1977 | 1059.58
298.15 K, 35000 kPa, x1 = 0.2432 | 1087.54
298.15 K, 35000 kPa, x1 = 0.3026 | 1117.69
298.15 K, 35000 kPa, x1 = 0.3887 | 1150.46
298.15 K, 35000 kPa, x1 = 0.485 | 1177.74
298.15 K, 35000 kPa, x1 = 0.589 | 1199.91
298.15 K, 35000 kPa, x1 = 0.7289 | 1222.43
298.15 K, 35000 kPa, x1 = 0.8521 | 1236.86
298.15 K, 35000 kPa, x1 = 0.9397 | 1245.99
303.15 K, 100 kPa, x1 = 0.04781 | 877.37
303.15 K, 100 kPa, x1 = 0.1026 | 951.86
303.15 K, 100 kPa, x1 = 0.1977 | 1036.37
303.15 K, 100 kPa, x1 = 0.2432 | 1065.2
303.15 K, 100 kPa, x1 = 0.3026 | 1096.34
303.15 K, 100 kPa, x1 = 0.3887 | 1130.14
303.15 K, 100 kPa, x1 = 0.485 | 1158.24
303.15 K, 100 kPa, x1 = 0.589 | 1181.07
303.15 K, 100 kPa, x1 = 0.7289 | 1204.24
303.15 K, 100 kPa, x1 = 0.8521 | 1219.11
303.15 K, 100 kPa, x1 = 0.9397 | 1228.28
303.15 K, 2500 kPa, x1 = 0.04781 | 879.39
303.15 K, 2500 kPa, x1 = 0.1026 | 953.61
303.15 K, 2500 kPa, x1 = 0.1977 | 1037.84
303.15 K, 2500 kPa, x1 = 0.2432 | 1066.61
303.15 K, 2500 kPa, x1 = 0.3026 | 1097.65
303.15 K, 2500 kPa, x1 = 0.3887 | 1131.4
303.15 K, 2500 kPa, x1 = 0.485 | 1159.4
303.15 K, 2500 kPa, x1 = 0.589 | 1182.15
303.15 K, 2500 kPa, x1 = 0.7289 | 1205.29
303.15 K, 2500 kPa, x1 = 0.8521 | 1220.12
303.15 K, 2500 kPa, x1 = 0.9397 | 1229.37
303.15 K, 5000 kPa, x1 = 0.04781 | 881.43
303.15 K, 5000 kPa, x1 = 0.1026 | 955.38
303.15 K, 5000 kPa, x1 = 0.1977 | 1039.36
303.15 K, 5000 kPa, x1 = 0.2432 | 1068.04
303.15 K, 5000 kPa, x1 = 0.3026 | 1099
303.15 K, 5000 kPa, x1 = 0.3887 | 1132.67
303.15 K, 5000 kPa, x1 = 0.485 | 1160.61
303.15 K, 5000 kPa, x1 = 0.589 | 1183.33
303.15 K, 5000 kPa, x1 = 0.7289 | 1206.4
303.15 K, 5000 kPa, x1 = 0.8521 | 1221.21
303.15 K, 5000 kPa, x1 = 0.9397 | 1230.44
303.15 K, 10000 kPa, x1 = 0.04781 | 885.44
303.15 K, 10000 kPa, x1 = 0.1026 | 958.89
303.15 K, 10000 kPa, x1 = 0.1977 | 1042.38
303.15 K, 10000 kPa, x1 = 0.2432 | 1070.92
303.15 K, 10000 kPa, x1 = 0.3026 | 1101.75
303.15 K, 10000 kPa, x1 = 0.3887 | 1135.24
303.15 K, 10000 kPa, x1 = 0.485 | 1163.06
303.15 K, 10000 kPa, x1 = 0.589 | 1185.69
303.15 K, 10000 kPa, x1 = 0.7289 | 1208.67
303.15 K, 10000 kPa, x1 = 0.8521 | 1223.41
303.15 K, 10000 kPa, x1 = 0.9397 | 1232.62
303.15 K, 15000 kPa, x1 = 0.04781 | 890.01
303.15 K, 15000 kPa, x1 = 0.1026 | 962.19
303.15 K, 15000 kPa, x1 = 0.1977 | 1045.21
303.15 K, 15000 kPa, x1 = 0.2432 | 1073.64
303.15 K, 15000 kPa, x1 = 0.3026 | 1104.31
